Read-outs that look alike come from different tables or passages of the source.
Legend:
Assay type in all cases: cell-based
[1] = tested on: IL-2 secretion from T cells in human whole blood; conditions: read-out: WB (IL-2) IC50 (nM, Avg)
[2] = tested on: IFN-g secretion from T cells in human whole blood
hKv1.3 = hKv1.3 (Homo sapiens, UniProt P22001); experiment: cell-based; conditions: Kv1.3 (IWQ) IC50 (nM, Avg)
[3] = read-out: WB (IFNg) IC5- (nM, Avg)
[4] = read-out: WB (IFNg) IC50 (nM, Avg)

Sequence of hKv1.3 (P22001 whole entry): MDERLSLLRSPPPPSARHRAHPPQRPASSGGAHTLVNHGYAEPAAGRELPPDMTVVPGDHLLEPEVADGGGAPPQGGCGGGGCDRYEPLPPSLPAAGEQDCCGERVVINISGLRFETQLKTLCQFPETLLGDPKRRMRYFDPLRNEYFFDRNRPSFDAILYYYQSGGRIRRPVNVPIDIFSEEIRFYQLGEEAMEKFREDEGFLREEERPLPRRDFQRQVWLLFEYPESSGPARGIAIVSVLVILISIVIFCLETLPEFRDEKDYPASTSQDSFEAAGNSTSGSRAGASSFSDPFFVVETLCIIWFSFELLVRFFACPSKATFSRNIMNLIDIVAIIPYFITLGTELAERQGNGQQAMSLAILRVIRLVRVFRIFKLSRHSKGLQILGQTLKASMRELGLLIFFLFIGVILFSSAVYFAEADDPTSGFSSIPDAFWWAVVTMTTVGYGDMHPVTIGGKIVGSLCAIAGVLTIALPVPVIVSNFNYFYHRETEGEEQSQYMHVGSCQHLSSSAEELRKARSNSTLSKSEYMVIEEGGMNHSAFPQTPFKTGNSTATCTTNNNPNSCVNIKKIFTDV

CC[C@H](C)[C@@H]1NC(=O)[C@@H](NC(=O)[C@H](CO)NC(=O)[C@@H](N)CCCNC(=N)N)CSSC[C@@H](C(=O)O)NC(=O)[C@H]([C@@H](C)O)NC(=O)CNC(=O)[C@@H]2CSSC[C@@H]3NC(=O)[C@H](CCC(N)=O)NC(=O)[C@H](Cc4ccccc4)NC(=O)[C@H](C)NC(=O)[C@H](CCC(=O)O)NC(=O)[C@H](CSSC[C@H](NC(=O)[C@H](Cc4ccccc4)NC(=O)[C@H](CO)NC(=O)[C@H](CC(C)C)NC(=O)[C@H](CCCNC(=N)N)NC(=O)[C@H](Cc4ccc(O)cc4)NC(=O)[C@H](CCCCN)NC(=O)[C@H](CCSC)NC(=O)[C@H](CO)NC(=O)[C@H](Cc4c[nH]cn4)NC(=O)[C@H](CCCCN)NC3=O)C(=O)N[C@@H](CCCNC(=N)N)C(=O)N[C@@H](CCCCN)C(=O)N[C@@H]([C@@H](C)O)C(=O)N2)NC(=O)[C@H](CCCNC(=N)N)NC(=O)[C@H](CO)NC(=O)[C@H](CCCCN)NC(=O)[C@@H]2CCCN2C(=O)[C@H]([C@@H](C)CC)NC(=O)[C@H]([C@@H](C)O)NC(=O)[C@H](CC(=O)O)NC1=O [[Glu13]ShK]
IC50 [1]: 0.785 nM | IC50 [2, 3]: 1.1 nM | IC50 (hKv1.3): 0.157 nM

CC[C@H](C)[C@@H]1NC(=O)[C@@H](NC(=O)[C@H](CO)NC(=O)[C@@H](N)CCCNC(=N)N)CSSC[C@@H](C(=O)O)NC(=O)[C@H]([C@@H](C)O)NC(=O)CNC(=O)[C@@H]2CSSC[C@@H]3NC(=O)[C@H](CCC(N)=O)NC(=O)[C@H](CCC(=O)O)NC(=O)[C@H](C)NC(=O)[C@H]([C@@H](C)O)NC(=O)[C@H](CSSC[C@H](NC(=O)[C@H](Cc4ccccc4)NC(=O)[C@H](CO)NC(=O)[C@H](CC(C)C)NC(=O)[C@H](CCCNC(=N)N)NC(=O)[C@H](Cc4ccc(O)cc4)NC(=O)[C@H](CCCCN)NC(=O)[C@H](CCSC)NC(=O)[C@H](CO)NC(=O)[C@H](Cc4c[nH]cn4)NC(=O)[C@H](CCCCN)NC3=O)C(=O)N[C@@H](CCCNC(=N)N)C(=O)N[C@@H](CCCCN)C(=O)N[C@@H]([C@@H](C)O)C(=O)N2)NC(=O)[C@H](CCCNC(=N)N)NC(=O)[C@H](CO)NC(=O)[C@H](CCCCN)NC(=O)[C@@H]2CCCN2C(=O)[C@H]([C@@H](C)CC)NC(=O)[C@H]([C@@H](C)O)NC(=O)[C@H](CC(=O)O)NC1=O [[Glu15]ShK]
IC50 [1]: 0.312 nM | IC50 [2, 3]: 0.575 nM | IC50 (hKv1.3): 0.266 nM

CC[C@H](C)[C@@H]1NC(=O)[C@@H](NC(=O)[C@H](CO)NC(=O)[C@@H](N)CCCNC(=N)N)CSSC[C@@H](C(=O)O)NC(=O)[C@H]([C@@H](C)O)NC(=O)CNC(=O)[C@@H]2CSSC[C@@H]3NC(=O)[C@H](CCC(=O)O)NC(=O)[C@H](Cc4ccccc4)NC(=O)[C@H](C)NC(=O)[C@H]([C@@H](C)O)NC(=O)[C@H](CSSC[C@H](NC(=O)[C@H](Cc4ccccc4)NC(=O)[C@H](CO)NC(=O)[C@H](CC(C)C)NC(=O)[C@H](CCCNC(=N)N)NC(=O)[C@H](Cc4ccc(O)cc4)NC(=O)[C@H](CCCCN)NC(=O)[C@H](CCSC)NC(=O)[C@H](CO)NC(=O)[C@H](Cc4c[nH]cn4)NC(=O)[C@H](CCCCN)NC3=O)C(=O)N[C@@H](CCCNC(=N)N)C(=O)N[C@@H](CCCCN)C(=O)N[C@@H]([C@@H](C)O)C(=O)N2)NC(=O)[C@H](CCCNC(=N)N)NC(=O)[C@H](CO)NC(=O)[C@H](CCCCN)NC(=O)[C@@H]2CCCN2C(=O)[C@H]([C@@H](C)CC)NC(=O)[C@H]([C@@H](C)O)NC(=O)[C@H](CC(=O)O)NC1=O [[Glu16]ShK]
IC50 [1]: 0.351 nM | IC50 [2, 3]: 0.373 nM | IC50 (hKv1.3): 0.206 nM

CCCC[C@@H]1NC(=O)[C@H](CO)NC(=O)[C@H](Cc2c[nH]cn2)NC(=O)[C@H](CCC(=O)O)NC(=O)[C@@H]2CSSC[C@@H]3NC(=O)[C@H]([C@@H](C)O)NC(=O)[C@H](CCCNC(=N)N)NC(=O)[C@H](CCCNC(=N)N)NC(=O)[C@H](CSSC[C@H](NC(=O)[C@H](CCCNC(=N)N)NC(=O)[C@H](CO)NC(=O)[C@H](CCCCN)NC(=O)[C@@H]4CCCN4C(=O)[C@H]([C@@H](C)CC)NC(=O)[C@H]([C@@H](C)O)NC(=O)[C@H](CC(=O)O)NC(=O)[C@H]([C@@H](C)CC)NC(=O)[C@@H](NC(=O)[C@H](CO)NC(=O)[C@@H](N)CCCNC(=N)N)CSSC[C@@H](C(N)=O)NC(=O)[C@H]([C@@H](C)O)NC(=O)CNC3=O)C(=O)N[C@@H]([C@@H](C)O)C(=O)N[C@@H](C)C(=O)N[C@@H](Cc3ccccc3)C(=O)N[C@@H](CCCCN)C(=O)N2)NC(=O)[C@H](Cc2ccccc2)NC(=O)[C@H](CO)NC(=O)[C@H](CC(C)C)NC(=O)[C@H](CCCNC(=N)N)NC(=O)[C@H](Cc2ccc(O)cc2)NC(=O)[C@H](CCCCN)NC1=O [[Glu18, Lys16, Nle21,Arg30]ShK-amide]
IC50 [1]: 1.22 nM | IC50 [2, 4]: 0.969 nM | IC50 (hKv1.3): 0.226 nM

CCCC[C@@H]1NC(=O)[C@H](CO)NC(=O)[C@H](Cc2c[nH]cn2)NC(=O)[C@H](CCC(=O)O)NC(=O)[C@@H]2CSSC[C@@H]3NC(=O)[C@H]([C@@H](C)O)NC(=O)[C@H](CCCCN)NC(=O)[C@H](CCCNC(=N)N)NC(=O)[C@H](CSSC[C@H](NC(=O)[C@H](CCCNC(=N)N)NC(=O)[C@H](CO)NC(=O)[C@H](CCCCN)NC(=O)[C@@H]4CCCN4C(=O)[C@H]([C@@H](C)CC)NC(=O)[C@H]([C@@H](C)O)NC(=O)[C@H](CC(=O)O)NC(=O)[C@H]([C@@H](C)CC)NC(=O)[C@@H](NC(=O)[C@H](CO)NC(=O)[C@@H](N)CCCNC(=N)N)CSSC[C@@H](C(N)=O)NC(=O)[C@H]([C@@H](C)O)NC(=O)CNC3=O)C(=O)N[C@@H]([C@@H](C)O)C(=O)N[C@@H](C)C(=O)N[C@@H](C)C(=O)N[C@@H](CCCCN)C(=O)N2)NC(=O)[C@H](Cc2ccccc2)NC(=O)[C@H](CO)NC(=O)[C@H](CC(C)C)NC(=O)[C@H](CCCNC(=N)N)NC(=O)[C@H](Cc2ccc(O)cc2)NC(=O)[C@H](CCCCN)NC1=O [[Glu18,Ala15,Lys16,Nle21]ShK-amide]
IC50 [1]: 1.35 nM | IC50 [2, 4]: 1.29 nM | IC50 (hKv1.3): 0.202 nM

CC[C@H](C)[C@@H]1NC(=O)[C@@H](NC(=O)[C@H](CO)NC(=O)[C@@H](N)CCCNC(=N)N)CSSC[C@@H](C(=O)O)NC(=O)[C@H]([C@@H](C)O)NC(=O)CNC(=O)[C@@H]2CSSC[C@@H]3NC(=O)[C@H](CCC(N)=O)NC(=O)[C@H](Cc4ccccc4)NC(=O)[C@H](C)NC(=O)[C@H]([C@@H](C)O)NC(=O)[C@H](CSSC[C@H](NC(=O)[C@H](Cc4ccccc4)NC(=O)[C@H](CO)NC(=O)[C@H](CC(C)C)NC(=O)[C@H](CCCNC(=N)N)NC(=O)[C@H](Cc4ccc(O)cc4)NC(=O)[C@H](CCCCN)NC(=O)[C@H](CCSC)NC(=O)[C@H](CO)NC(=O)[C@H](Cc4c[nH]cn4)NC(=O)[C@H](CCC(=O)O)NC3=O)C(=O)N[C@@H](CCCNC(=N)N)C(=O)N[C@@H](CCCCN)C(=O)N[C@@H]([C@@H](C)O)C(=O)N2)NC(=O)[C@H](CCCNC(=N)N)NC(=O)[C@H](CO)NC(=O)[C@H](CCCCN)NC(=O)[C@@H]2CCCN2C(=O)[C@H]([C@@H](C)CC)NC(=O)[C@H]([C@@H](C)O)NC(=O)[C@H](CC(=O)O)NC1=O [[Glu18]ShK]
IC50 [1]: 0.047 nM | IC50 [2, 3]: 0.083 nM | IC50 (hKv1.3): 0.117 nM

CC[C@H](C)[C@@H]1NC(=O)[C@@H](NC(=O)[C@H](CO)NC(=O)[C@@H](N)CCCNC(=N)N)CSSC[C@@H](C(=O)O)NC(=O)[C@H]([C@@H](C)O)NC(=O)CNC(=O)[C@@H]2CSSC[C@@H]3NC(=O)[C@H](CCC(N)=O)NC(=O)[C@H](Cc4ccccc4)NC(=O)[C@H](C)NC(=O)[C@H]([C@@H](C)O)NC(=O)[C@H](CSSC[C@H](NC(=O)[C@H](Cc4ccccc4)NC(=O)[C@H](CO)NC(=O)[C@H](CC(C)C)NC(=O)[C@H](CCCNC(=N)N)NC(=O)[C@H](Cc4ccc(O)cc4)NC(=O)[C@H](CCCCN)NC(=O)[C@H](CCSC)NC(=O)[C@H](CCC(=O)O)NC(=O)[C@H](Cc4c[nH]cn4)NC(=O)[C@H](CCCCN)NC3=O)C(=O)N[C@@H](CCCNC(=N)N)C(=O)N[C@@H](CCCCN)C(=O)N[C@@H]([C@@H](C)O)C(=O)N2)NC(=O)[C@H](CCCNC(=N)N)NC(=O)[C@H](CO)NC(=O)[C@H](CCCCN)NC(=O)[C@@H]2CCCN2C(=O)[C@H]([C@@H](C)CC)NC(=O)[C@H]([C@@H](C)O)NC(=O)[C@H](CC(=O)O)NC1=O [[Glu20]ShK]
IC50 [1]: 92 nM | IC50 [2, 3]: 92 nM | IC50 (hKv1.3): 100 nM

CC[C@H](C)[C@@H]1NC(=O)[C@@H](NC(=O)[C@H](CO)NC(=O)[C@@H](N)CCCNC(=N)N)CSSC[C@@H](C(=O)O)NC(=O)[C@H]([C@@H](C)O)NC(=O)CNC(=O)[C@@H]2CSSC[C@@H]3NC(=O)[C@H](CCC(N)=O)NC(=O)[C@H](Cc4ccccc4)NC(=O)[C@H](C)NC(=O)[C@H]([C@@H](C)O)NC(=O)[C@H](CSSC[C@H](NC(=O)[C@H](Cc4ccccc4)NC(=O)[C@H](CO)NC(=O)[C@H](CC(C)C)NC(=O)[C@H](CCCNC(=N)N)NC(=O)[C@H](Cc4ccc(O)cc4)NC(=O)[C@H](CCCCN)NC(=O)[C@H](CCC(=O)O)NC(=O)[C@H](CO)NC(=O)[C@H](Cc4c[nH]cn4)NC(=O)[C@H](CCCCN)NC3=O)C(=O)N[C@@H](CCCNC(=N)N)C(=O)N[C@@H](CCCCN)C(=O)N[C@@H]([C@@H](C)O)C(=O)N2)NC(=O)[C@H](CCCNC(=N)N)NC(=O)[C@H](CO)NC(=O)[C@H](CCCCN)NC(=O)[C@@H]2CCCN2C(=O)[C@H]([C@@H](C)CC)NC(=O)[C@H]([C@@H](C)O)NC(=O)[C@H](CC(=O)O)NC1=O [[Glu21]ShK]
IC50 [1]: 18.5 nM | IC50 [2, 3]: 28.1 nM | IC50 (hKv1.3): 3.33 nM

CC[C@H](C)[C@@H]1NC(=O)[C@@H](NC(=O)[C@H](CO)NC(=O)[C@@H](N)CCCNC(=N)N)CSSC[C@@H](C(=O)O)NC(=O)[C@H]([C@@H](C)O)NC(=O)CNC(=O)[C@@H]2CSSC[C@@H]3NC(=O)[C@H](CCC(N)=O)NC(=O)[C@H](Cc4ccccc4)NC(=O)[C@H](C)NC(=O)[C@H]([C@@H](C)O)NC(=O)[C@H](CSSC[C@H](NC(=O)[C@H](Cc4ccccc4)NC(=O)[C@H](CO)NC(=O)[C@H](CCC(=O)O)NC(=O)[C@H](CCCNC(=N)N)NC(=O)[C@H](Cc4ccc(O)cc4)NC(=O)[C@H](CCCCN)NC(=O)[C@H](CCSC)NC(=O)[C@H](CO)NC(=O)[C@H](Cc4c[nH]cn4)NC(=O)[C@H](CCCCN)NC3=O)C(=O)N[C@@H](CCCNC(=N)N)C(=O)N[C@@H](CCCCN)C(=O)N[C@@H]([C@@H](C)O)C(=O)N2)NC(=O)[C@H](CCCNC(=N)N)NC(=O)[C@H](CO)NC(=O)[C@H](CCCCN)NC(=O)[C@@H]2CCCN2C(=O)[C@H]([C@@H](C)CC)NC(=O)[C@H]([C@@H](C)O)NC(=O)[C@H](CC(=O)O)NC1=O [[Glu25]ShK]
IC50 [1]: 0.494 nM | IC50 [2, 3]: 0.678 nM | IC50 (hKv1.3): 0.24 nM
